The source of these data is US20120238562A1, “TREATMENT OF CANCER BY TARGETING MOLECULES THAT INFLUENCE MST1/STK4 SIGNALING” (CEDARS-SINAI MEDICAL CENTER, priority 2011, published 2012).

What all share (type): cell-based, human
One assay relates to C4-2 cells. The assay can be described thus: Cell proliferation by MTS assay, C4-2 cells. The following applies: for C4-2 cell growth / proliferation vs control (MTS, A490 nm): 48 h post treatment, vs DMSO, Ku0063794 1 μM, rapamycin 1 μM (p<0.1), BEZ-235 0.5 μM (p<0.002). On the procedure:
A, B) LNCaP (A) or C4-2 (B) cells were treated with control (DMSO), LY294002 (20 μM), Ku0063794 (1 μM), rapamycin (1 μM), LY294002+Ku0063794, or LY294002+Rapamycin. C) C4-2 cells were treated with DMSO or the dual PI3K and mTOR inhibitor, BEZ-235 (0.5 μM). Control or drug treatments were performed in T-medium supplemented with 5% FBS and 1% Pen/Strep. Cell proliferation was determined by MTS assay (A490 nm) at 48 h post treatment. D) Levels of endogenous total Mst1 by western blot in cytoplasmic (C) and nuclear (N) fractions from C4-2 cells that were transfected with scramble or Mst1 specific SiRNa. B-actin was used as a loading control. E) Effects of DMSO or CCI-779 on C4-2 cell proliferation with scramble or MSt1 knockdown conditions. Cell proliferation was determined by MTS (A490 nm) at 72 h post transfection. Data are representative of multiple experiments.
Cell proliferation was measured using CellTiter 96 AQueous with MTS reagent (Promega, Madison, Wis.). Briefly, cells in RPMI-medium plus 10% fetal bovine serum were added to 96-well plates at 4,000 cells per well in quadruplicate. After 24 h, LY290042, Ku0063794, Rapamycin, CCI-779 or BEZ-235 alone or combined were added, and cells were cultured for the indicated time. DMSO was used as a control. At 24 h post siRNA transfection, cells were treated with DMSO control or CCI-779 and incubated up to 72 h. MTS and phenazine methosulfate solution (20 μL/well) was added and the absorbance at 490 nm was recorded using a microplate reader (BMG Labtech; Cary, N.C.). For the clonogenic assay, 500 cells per well were seeded and cultured in 6-well plates for a week in the presence of Dox (0.5 μg/mL) in serum-fed conditions. The medium was changed every 3 days. Colonies were fixed with formaldehyde (4% v/v) and stained with crystal violet (0.5%). Representative views from triplicate experiments were photographed and quantified. […] After 14 days, colonies were photographed and quantified. […]
On the technique in general: Tetrazolium assays rely on reduction of a dye to a coloured formazan, in cell work by metabolically active cells.

For assay [1], the system named is Mst1-T120 phosphorylation. Briefly: Western blot of Mst1-T120 phosphorylation in cytoplasmic and nuclear fractions of C4-2 cells. The following applies: serum-deprived, 3 h post treatment, vs DMSO control, LY294002 20 μM, Ku0063794 1 μM, CCI-779 1 μM. The method, then: (§1) A) Schematic representation of the GST-Mst1 peptide with wild type (wt) T120 or T120A mutations. B) In vitro kinase assay with bacterially expressed and purified GST-only, GST-Mst1-T120 wt, or GST-Mst1-T120A mutant peptide and the recombinant pre-activated Akt kinase. Western blots were probed with pMst1-T120 antibody. Ponceau S stained purified GST, GST-Mst1-T120, or GST-Mst1-T120A mutant peptide. C) LNCaP cells were treated with DMSO (vehicle) control, a specific PI3K inhibitor, LY294002 (20 μM), or mTOR inhibitor, Ku0063794 (1 μM) in serum-starved conditions. […]
(§2) A nuclear extraction kit according to the manufacturer's protocol (Affymetrix, Santa Clara, Calif.) was used to isolate cytoplasmic and nuclear fractions. […] Protein concentrations were determined by the Lowry method (Bio-Rad, Hercules, Calif.). […] Signals were detected using SuperSignal West Pico Chemiluminescence Substrate (Thermo Scientific, Roxford, Ill.).
(§3) The inventors generated GST-Mst1 peptide with T120-wt or T120A mutations (FIG. 2A). […] The inventors then assessed the effects of PI3K-Akt inhibition on Mst1-T120 phosphorylation in its respective location in the cell. […] The levels of phospho-Mst1-T120 were assessed by western blot in cytoplasmic and nuclear fractions. […]
On the technique in general: In western blotting, separated proteins are transferred to a membrane and probed.

The test system of the next assay is Akt. The assay can be described thus: Akt activation in C4-2 cells under mTOR inhibition. Particulars: castration-resistant prostate cancer cells (C4-2), same conditions as Mst1-T120 hyper-phosphorylation. The method, then:
A) Schematic representation of the GST-Mst1 peptide with wild type (wt) T120 or T120A mutations. B) In vitro kinase assay with bacterially expressed and purified GST-only, GST-Mst1-T120 wt, or GST-Mst1-T120A mutant peptide and the recombinant pre-activated Akt kinase. Western blots were probed with pMst1-T120 antibody. Ponceau S stained purified GST, GST-Mst1-T120, or GST-Mst1-T120A mutant peptide. C) LNCaP cells were treated with DMSO (vehicle) control, a specific PI3K inhibitor, LY294002 (20 μM), or mTOR inhibitor, Ku0063794 (1 μM) in serum-starved conditions. D) C4-2 cells were treated with Temsirolimus (CCI-779), an mTORC1 inhibitor (1 μM) in addition to DMSO, LY294002 and Ku0063794 under the same experimental conditions as in “C”. E) C4-2 cells treated with DMSO or LY294002 and CCI-779. Control/DMSO or drug treatment in “C,” “D,” or “E” was performed under serum-deprived conditions. Western blots were probed with antibodies to corresponding proteins at 3 h post treatment. Lam-A/C:Lamin-A/C. Data are representative of multiple experiments.
Consistent with this finding, PI3K and mTORC1 inhibition combined synergistically to prevent the proliferation of C4-2 cells compared to a single agent (FIG. 3B). […]

The next assay relates to Mst1. Briefly: Western blot of Mst1 nuclear accumulation in C4-2 cells. Particulars: Ku0063794 1 μM or CCI-779 1 μM, 3 h post treatment. The method, then:
A) Schematic representation of the GST-Mst1 peptide with wild type (wt) T120 or T120A mutations. B) In vitro kinase assay with bacterially expressed and purified GST-only, GST-Mst1-T120 wt, or GST-Mst1-T120A mutant peptide and the recombinant pre-activated Akt kinase. Western blots were probed with pMst1-T120 antibody. Ponceau S stained purified GST, GST-Mst1-T120, or GST-Mst1-T120A mutant peptide. C) LNCaP cells were treated with DMSO (vehicle) control, a specific PI3K inhibitor, LY294002 (20 μM), or mTOR inhibitor, Ku0063794 (1 μM) in serum-starved conditions. D) C4-2 cells were treated with Temsirolimus (CCI-779), an mTORC1 inhibitor (1 μM) in addition to DMSO, LY294002 and Ku0063794 under the same experimental conditions as in “C”. E) C4-2 cells treated with DMSO or LY294002 and CCI-779. Control/DMSO or drug treatment in “C,” “D,” or “E” was performed under serum-deprived conditions. Western blots were probed with antibodies to corresponding proteins at 3 h post treatment. Lam-A/C:Lamin-A/C. […]
A nuclear extraction kit according to the manufacturer's protocol (Affymetrix, Santa Clara, Calif.) was used to isolate cytoplasmic and nuclear fractions. […] Protein concentrations were determined by the Lowry method (Bio-Rad, Hercules, Calif.). […] Signals were detected using SuperSignal West Pico Chemiluminescence Substrate (Thermo Scientific, Roxford, Ill.). […]

Assay [2] concerns Mst1-T120 phosphorylation. The assay can be described thus: Western blot of Mst1-T120 phosphorylation in cytoplasmic and nuclear fractions of LNCaP cells. Particulars: serum-starved, 3 h post treatment, vs DMSO control, LY294002 20 μM, Ku0063794 1 μM. The method, then: as §1, §2, §3
For assay [3], the system named is Mst1-T183 phosphorylation. The assay can be described thus: Mst1-T183 phosphorylation in treated prostate cancer cells. The following applies: prostate cancer cells treated with inhibitor. On the procedure:
However, the levels of […] phosphorylation were unchanged when cells were treated with a potent mTOR inhibitor, Ku0063794, (FIG. 3). […] Based on these observations, the inventors therefore conclude that Mst1-phosphorylation at T120 or at […] are unrelated events or is modulated by different mechanisms, at least in prostate cancer cells.

“Also recorded” adds a separate entry of the source.

On to `CO[C@H]1C[C@@H]2CC[C@@H](C)[C@@](O)(O2)C(=O)C(=O)N2CCCC[C@H]2C(=O)O[C@H]([C@H](C)C[C@@H]2CC[C@@H](OC(=O)C(C)(CO)CO)[C@H](OC)C2)CC(=O)[C@H](C)/C=C(\C)[C@@H](O)[C@@H](OC)C(=O)[C@H](C)C[C@H](C)/C=C/C=C/C=C/1C` [CCI-779, temsirolimus], for which, in the assay with C4-2 cells (Mst1 siRNA vs scramble siRNA, CCI-779 vs DMSO, 72 h post transfection), the “C4-2 cell proliferation under Mst1 knockdown vs scramble siRNA (MTS, A490 nm)” value is “sensitized”. For the same compound, the Mst1-T120 phosphorylation entry in assay [1] is on record as “hyper-phosphorylation; also recorded: hyperphosphorylation”. Further, in the assay on Akt, the Akt activation entry was “did not observe Akt activation”. Further, the Mst1 nuclear accumulation result in the assay on Mst1 is “increase”.
With `COc1ccc(-c2ccc3c(N4CCOCC4)nc(N4C[C@@H](C)O[C@@H](C)C4)nc3n2)cc1CO` [Ku0063794], the “Mst1-T120 phosphorylation in cell nuclei” value in assay [2] is given as “unable to prevent”. Moreover, the “C4-2 cell growth / proliferation vs control (MTS, A490 nm)” value in the assay on C4-2 cells is listed as “failed to significantly inhibit”. Also, the Mst1-T120 phosphorylation entry in assay [1] is on record as “hyper-phosphorylation; also recorded: hyperphosphorylation”. In addition, the Akt activation result with Akt is “did not observe Akt activation”. Further, the Mst1 nuclear accumulation entry in the assay on Mst1 is on record as “increase”. Besides, in assay [3], the Mst1-T183 phosphorylation entry is given as “unchanged”.
In the case of `Cn1c(=O)n(-c2ccc(C(C)(C)C#N)cc2)c2c3cc(-c4cnc5ccccc5c4)ccc3ncc21` [BEZ-235], the “C4-2 cell growth / proliferation vs control (MTS, A490 nm)” value in the assay on C4-2 cells is on record as “significantly inhibited”.
